Data: paper PMC3226499, “Environmental Impact on Vascular Development Predicted by High-Throughput Screening” (Environmental Health Perspectives, 2011)
Read-outs that look alike come from different tables or passages of the source.

What was measured:
[1] = system: six prioritized vascular targets (VEGFR2, TIE2, CCL2, PAI-1, CXCL10, uPAR); experiment: Vascular bioactivity score (VBS): weighted sum of activity across 23 ToxCast assays; parameters: species or system human
pregnant rabbits = conditions: cited from earlier work
PI3Ka = PI3Ka (Homo sapiens, UniProt P42336); experiment: PI3Ka biochemical assay
pregnant rats = conditions: cited from earlier work
PTEN = PTEN (Homo sapiens, UniProt P60484); experiment: PTEN biochemical assay
mouse = conditions: ToxRefDB end points; ref U.S. EPA 2010b; cited from earlier work
EphB2 = target: T1, EphB2 (Homo sapiens, UniProt P29323); experiment: EphB2 biochemical assay; conditions: read-out: EphB2 AC50
T1 sequence (P29323 569-986 isoform P29323-2 limits assumed): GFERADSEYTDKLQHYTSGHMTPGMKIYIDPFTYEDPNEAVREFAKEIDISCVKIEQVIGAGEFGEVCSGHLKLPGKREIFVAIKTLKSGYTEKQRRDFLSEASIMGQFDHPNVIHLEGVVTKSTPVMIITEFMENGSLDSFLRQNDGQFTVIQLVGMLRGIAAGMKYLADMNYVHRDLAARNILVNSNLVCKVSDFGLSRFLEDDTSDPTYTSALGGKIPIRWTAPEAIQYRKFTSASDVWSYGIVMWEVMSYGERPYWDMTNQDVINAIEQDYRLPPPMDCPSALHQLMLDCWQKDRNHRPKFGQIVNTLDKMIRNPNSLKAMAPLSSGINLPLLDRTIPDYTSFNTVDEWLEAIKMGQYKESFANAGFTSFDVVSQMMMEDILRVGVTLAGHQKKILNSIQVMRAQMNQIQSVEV

VEGFR2 = VEGFR2 (Homo sapiens, UniProt P35968); experiment: VEGFR2 biochemical assay
VEGFR3 = VEGFR3 (Homo sapiens, UniProt P35916); experiment: VEGFR3 biochemical assay
TIE2 = TIE2 (Homo sapiens, UniProt Q02763); experiment: TIE2 cell-free biochemical assay
From the text: Assays measured direct interactions between chemicals and molecular targets (receptors, enzymes), as well as downstream effects on reporter gene activity or cellular consequences. […] The perturbation scores are a method of aggregating assays into groups and providing a higher-level view of chemical activity across important signaling pathways.
The chemical library was run against these assays, as was a repeat of the TIE2 assay from the original data series (Table 2).

[2] = pVDCs with rabbit-specific effects
[3] = rabbit-specific effects in ToxRefDB prenatal studies, ref U.S. EPA 2010b
[4] = pVDCs with rat-specific effects
[5] = rat-specific effects in ToxRefDB prenatal studies, ref U.S. EPA 2010b
[6] = ranking of 309 phase I chemicals, mean cutoff for pVDC

Chain of PTEN (P60484 whole entry, species assumed): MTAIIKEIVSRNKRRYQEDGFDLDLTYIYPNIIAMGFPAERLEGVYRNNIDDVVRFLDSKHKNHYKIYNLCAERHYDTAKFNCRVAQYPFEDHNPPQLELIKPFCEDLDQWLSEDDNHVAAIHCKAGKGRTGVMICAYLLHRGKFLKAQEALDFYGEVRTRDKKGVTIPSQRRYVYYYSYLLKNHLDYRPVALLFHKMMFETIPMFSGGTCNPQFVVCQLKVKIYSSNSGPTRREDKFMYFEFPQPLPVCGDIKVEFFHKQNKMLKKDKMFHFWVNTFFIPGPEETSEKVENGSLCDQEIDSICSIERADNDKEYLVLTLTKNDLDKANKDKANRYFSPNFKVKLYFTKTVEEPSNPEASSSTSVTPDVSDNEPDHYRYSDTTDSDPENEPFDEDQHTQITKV
Chain of PI3Ka (P42336 whole entry): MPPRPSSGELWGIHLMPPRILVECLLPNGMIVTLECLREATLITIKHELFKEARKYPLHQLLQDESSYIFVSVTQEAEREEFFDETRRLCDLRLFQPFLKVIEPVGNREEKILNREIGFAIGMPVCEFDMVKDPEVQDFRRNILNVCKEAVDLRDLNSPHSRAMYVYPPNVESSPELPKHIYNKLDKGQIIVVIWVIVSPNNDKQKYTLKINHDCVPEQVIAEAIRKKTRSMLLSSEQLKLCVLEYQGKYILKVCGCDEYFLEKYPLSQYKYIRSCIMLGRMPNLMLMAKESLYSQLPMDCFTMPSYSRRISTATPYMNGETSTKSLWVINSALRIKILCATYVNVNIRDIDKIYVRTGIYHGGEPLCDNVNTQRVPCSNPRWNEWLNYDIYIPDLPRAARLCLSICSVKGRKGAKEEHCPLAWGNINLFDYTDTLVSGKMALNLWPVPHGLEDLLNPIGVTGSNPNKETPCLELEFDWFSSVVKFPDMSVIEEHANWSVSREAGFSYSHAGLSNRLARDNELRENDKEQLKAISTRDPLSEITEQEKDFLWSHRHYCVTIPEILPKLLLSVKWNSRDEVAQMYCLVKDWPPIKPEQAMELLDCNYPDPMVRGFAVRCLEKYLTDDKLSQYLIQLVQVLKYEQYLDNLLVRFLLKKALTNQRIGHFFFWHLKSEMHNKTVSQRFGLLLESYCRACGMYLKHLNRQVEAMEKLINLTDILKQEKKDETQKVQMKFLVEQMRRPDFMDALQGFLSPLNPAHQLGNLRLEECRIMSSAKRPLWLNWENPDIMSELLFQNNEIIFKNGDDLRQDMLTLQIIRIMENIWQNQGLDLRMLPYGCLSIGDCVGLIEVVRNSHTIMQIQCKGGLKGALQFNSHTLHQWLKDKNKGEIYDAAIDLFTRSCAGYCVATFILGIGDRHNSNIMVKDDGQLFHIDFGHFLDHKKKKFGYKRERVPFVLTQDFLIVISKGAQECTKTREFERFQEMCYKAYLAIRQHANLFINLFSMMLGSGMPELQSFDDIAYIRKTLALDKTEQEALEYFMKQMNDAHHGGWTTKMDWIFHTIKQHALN
Chain of PI3Ka (P27986 whole entry partner): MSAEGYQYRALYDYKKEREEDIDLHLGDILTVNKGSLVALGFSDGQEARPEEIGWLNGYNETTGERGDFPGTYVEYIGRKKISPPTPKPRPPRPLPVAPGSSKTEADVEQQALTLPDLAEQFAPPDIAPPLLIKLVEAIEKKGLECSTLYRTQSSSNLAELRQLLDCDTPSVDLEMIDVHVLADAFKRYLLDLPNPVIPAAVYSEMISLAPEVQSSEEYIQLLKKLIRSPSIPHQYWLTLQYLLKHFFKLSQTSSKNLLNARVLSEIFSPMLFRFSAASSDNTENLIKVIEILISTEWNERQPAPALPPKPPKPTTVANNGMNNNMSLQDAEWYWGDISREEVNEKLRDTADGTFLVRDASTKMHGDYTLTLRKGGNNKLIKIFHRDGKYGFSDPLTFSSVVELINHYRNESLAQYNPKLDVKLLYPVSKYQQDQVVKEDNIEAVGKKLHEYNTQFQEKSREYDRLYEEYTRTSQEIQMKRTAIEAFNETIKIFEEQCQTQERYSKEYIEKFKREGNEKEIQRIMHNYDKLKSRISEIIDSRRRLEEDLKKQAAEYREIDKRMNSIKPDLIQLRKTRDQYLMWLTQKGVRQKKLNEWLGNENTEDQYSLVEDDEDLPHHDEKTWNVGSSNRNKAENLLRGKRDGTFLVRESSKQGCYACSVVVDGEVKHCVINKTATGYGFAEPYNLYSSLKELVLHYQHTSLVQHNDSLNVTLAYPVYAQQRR
Chain of TIE2 (Q02763 23-1124, species assumed): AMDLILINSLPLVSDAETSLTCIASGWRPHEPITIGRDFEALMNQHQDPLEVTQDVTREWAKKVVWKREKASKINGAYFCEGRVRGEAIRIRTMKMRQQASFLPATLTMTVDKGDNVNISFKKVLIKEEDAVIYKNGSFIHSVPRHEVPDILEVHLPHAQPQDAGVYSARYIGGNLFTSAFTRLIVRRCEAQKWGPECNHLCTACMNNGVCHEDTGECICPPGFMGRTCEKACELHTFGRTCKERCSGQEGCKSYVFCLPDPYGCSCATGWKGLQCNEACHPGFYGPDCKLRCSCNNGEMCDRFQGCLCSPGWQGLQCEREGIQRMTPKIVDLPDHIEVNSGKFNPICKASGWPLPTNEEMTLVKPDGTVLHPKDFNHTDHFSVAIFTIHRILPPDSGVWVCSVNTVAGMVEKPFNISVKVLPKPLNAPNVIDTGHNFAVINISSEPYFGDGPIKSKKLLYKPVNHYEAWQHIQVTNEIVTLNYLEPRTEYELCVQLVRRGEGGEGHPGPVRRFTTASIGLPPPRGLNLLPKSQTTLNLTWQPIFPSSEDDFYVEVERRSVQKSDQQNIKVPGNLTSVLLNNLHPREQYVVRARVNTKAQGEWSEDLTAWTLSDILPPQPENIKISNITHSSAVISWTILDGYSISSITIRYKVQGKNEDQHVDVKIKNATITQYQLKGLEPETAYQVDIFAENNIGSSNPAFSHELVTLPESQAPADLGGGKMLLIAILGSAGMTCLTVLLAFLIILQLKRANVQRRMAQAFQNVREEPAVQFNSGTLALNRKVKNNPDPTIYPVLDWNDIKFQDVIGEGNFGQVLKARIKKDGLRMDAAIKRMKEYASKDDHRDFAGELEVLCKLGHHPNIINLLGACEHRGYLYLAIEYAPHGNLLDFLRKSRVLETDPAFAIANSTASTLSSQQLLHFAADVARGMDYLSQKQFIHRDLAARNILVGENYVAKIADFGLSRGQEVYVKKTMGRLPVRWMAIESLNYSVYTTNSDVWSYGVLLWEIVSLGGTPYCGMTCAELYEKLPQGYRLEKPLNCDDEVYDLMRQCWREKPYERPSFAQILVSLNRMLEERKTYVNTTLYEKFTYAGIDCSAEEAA
Chain of VEGFR2 (P35968 20-1356, species assumed): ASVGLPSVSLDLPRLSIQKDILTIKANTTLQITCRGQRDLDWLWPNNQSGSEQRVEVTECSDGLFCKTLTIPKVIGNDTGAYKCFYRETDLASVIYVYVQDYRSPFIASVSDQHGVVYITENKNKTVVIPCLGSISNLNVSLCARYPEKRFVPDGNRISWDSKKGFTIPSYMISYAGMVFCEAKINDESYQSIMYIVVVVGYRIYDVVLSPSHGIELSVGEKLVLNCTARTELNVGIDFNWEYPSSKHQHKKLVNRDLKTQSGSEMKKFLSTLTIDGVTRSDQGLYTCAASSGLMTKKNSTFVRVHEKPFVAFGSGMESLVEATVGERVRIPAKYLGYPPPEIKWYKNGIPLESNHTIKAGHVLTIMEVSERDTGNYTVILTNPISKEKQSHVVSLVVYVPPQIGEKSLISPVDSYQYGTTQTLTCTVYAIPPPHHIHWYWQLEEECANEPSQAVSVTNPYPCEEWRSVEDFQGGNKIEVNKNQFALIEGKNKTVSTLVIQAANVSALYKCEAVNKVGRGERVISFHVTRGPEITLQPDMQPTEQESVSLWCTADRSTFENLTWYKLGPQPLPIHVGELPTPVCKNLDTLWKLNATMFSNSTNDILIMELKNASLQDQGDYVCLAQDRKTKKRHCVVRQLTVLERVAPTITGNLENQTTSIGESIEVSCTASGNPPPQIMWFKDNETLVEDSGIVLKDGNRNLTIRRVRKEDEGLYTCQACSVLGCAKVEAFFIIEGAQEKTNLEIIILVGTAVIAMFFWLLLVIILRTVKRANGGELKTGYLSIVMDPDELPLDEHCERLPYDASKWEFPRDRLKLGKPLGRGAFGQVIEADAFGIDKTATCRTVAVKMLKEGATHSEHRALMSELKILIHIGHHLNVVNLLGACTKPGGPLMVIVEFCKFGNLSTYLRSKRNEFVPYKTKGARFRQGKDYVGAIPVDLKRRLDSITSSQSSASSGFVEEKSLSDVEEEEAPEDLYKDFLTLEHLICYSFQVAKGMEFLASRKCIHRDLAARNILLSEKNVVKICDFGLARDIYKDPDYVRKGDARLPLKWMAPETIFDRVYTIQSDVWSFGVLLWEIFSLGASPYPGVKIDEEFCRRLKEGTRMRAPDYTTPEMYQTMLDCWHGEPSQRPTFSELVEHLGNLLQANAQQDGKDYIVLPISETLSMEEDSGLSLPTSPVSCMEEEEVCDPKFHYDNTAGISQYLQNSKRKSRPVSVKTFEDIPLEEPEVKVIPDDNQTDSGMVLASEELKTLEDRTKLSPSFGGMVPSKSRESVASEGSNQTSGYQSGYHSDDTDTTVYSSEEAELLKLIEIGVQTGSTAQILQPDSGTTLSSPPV

Row | Molecule | VBS [1, 2] | VBS [1, 4] | Developmental phenotype (pregnant rats; [5]) | other results
1 | C[C@@]1(c2ccc(Oc3ccccc3)cc2)OC(=O)N(Nc2ccccc2)C1=O (racemic) [Famoxadone] | 1.82 |  |  | Developmental phenotype (pregnant rabbits; [3]): Embryo fetal loss; maternal pregnancy loss
2 | Oc1ccc(C(c2ccc(O)cc2)C(Cl)(Cl)Cl)cc1 [2,2-bis-(p-Hydroxyphenyl)-1,1,1-trichloroethane] |  |  |  | VBS ([1]; ToxCast chemicals of Table 2): 2.28; AC50 (PI3Ka): 28 µM
3 | Cc1nn(C)c(Oc2ccccc2)c1/C=N/OCc1ccc(C(=O)OC(C)(C)C)cc1 [(Z,E)-Fenpyroximate] |  | 3.88 | Skeletal: axial | 
4 | CCOCN(C(=O)CCl)c1c(C)cccc1CC [Acetochlor] |  | 2.16 |  | 
5 | CCc1cccc(CC)c1N(COC)C(=O)CCl [Alachlor] |  | 2.97 | Fetal weight reduction; embryo fetal loss | 
6 | COP(=O)(OC)SCn1c(=O)oc2cc(Cl)cnc21 [Azamethiphos] | 3.10 |  |  | Developmental phenotype (pregnant rabbits; [3]): Maternal pregnancy loss
7 | CCCCOCN(C(=O)CCl)c1c(CC)cccc1CC [Butachlor] | 1.99 |  |  | 
8 | C=CCOC(=O)C(C)(C)OC(=O)c1cc(-n2c(=O)cc(C(F)(F)F)n(C)c2=O)ccc1Cl [Butafenacil] | 2.94 |  |  | Developmental phenotype (pregnant rabbits; [3]): Embryo fetal loss
9 | O=C1C2CC=CCC2C(=O)N1SC(Cl)(Cl)Cl (stereo not shown) [Captan] |  |  |  | VBS ([1]; ToxCast chemicals of Table 2): 1.14; AC50 (PTEN): 35 µM
10 | CC1=C(C(=O)Nc2ccccc2)SCCO1 [Carboxin] | 1.56 |  |  | Developmental phenotype (pregnant rabbits; [3]): Maternal pregnancy loss
11 | N#Cc1c(Cl)c(Cl)c(Cl)c(C#N)c1Cl [Chlorothalonil] |  | 3.28 | Embryo fetal loss; maternal pregnancy loss | 
12 | CCOP(=S)(OCC)Oc1ccc2c(C)c(Cl)c(=O)oc2c1 [Coumaphos] |  |  |  | MOUSE Chronic (mouse): No effe ct re corded
13 | Cc1ccc(-c2c(Cl)nc(C#N)n2S(=O)(=O)N(C)C)cc1 [Cyazofamid] |  | 3.34 | Skeletal: axial | 
14 | O=C(O)C1(C(=O)Nc2ccc(Cl)cc2Cl)CC1 [Cyclanilide] |  |  |  | VBS ([1]; ToxCast chemicals of Table 2): 0.21; AC50 (PTEN; read-out: PTEN AC50): 3.9 µM; AC50 (EphB2): 50 µM
15 | CN1CSC(=S)N(C)C1 [Dazomet] | 2.61 |  |  | 
16 | COP(=O)(OC)OC=C(Cl)Cl [Dichlorvos] | 2.34 |  |  | Developmental phenotype (pregnant rabbits; rabbit, in vivo): Maternal pregnancy loss
17 | CCOc1nc(F)cc2nc(S(=O)(=O)Nc3c(Cl)cccc3Cl)nn12 [Diclosulam] | 2.09 |  |  | VBS ([1]; ToxCast chemicals of Table 2): 2.09; Developmental phenotype (pregnant rabbits; [3]): Maternal pregnancy loss; AC50 (PTEN; read-out: PTEN AC50): 50 µM
18 | OC(c1ccc(Cl)cc1)(c1ccc(Cl)cc1)C(Cl)(Cl)Cl [Dicofol] | 1.92 |  |  | Developmental phenotype (pregnant rabbits; [3]): Maternal pregnancy loss
19 | COP(=O)(OC)O/C(C)=C/C(=O)N(C)C [Dicrotophos] | 1.59 |  |  | 
20 | CCOc1cc(C(C)(C)C)ccc1C1COC(c2c(F)cccc2F)=N1 (stereo not shown) [Etoxazole] | 3.66 |  |  | Developmental phenotype (pregnant rabbits; [3]): Skeletal: axial
21 | CCOC(=O)NCCOc1ccc(Oc2ccccc2)cc1 [Fenoxycarb] | 3.60 |  |  | Developmental phenotype (pregnant rabbits; [3]): Skeletal: axial
22 | CC1(C)C(C(=O)OC(C#N)c2cccc(Oc3ccccc3)c2)C1(C)C (stereo not shown) [Fenpropathrin] |  | 2.18 |  | Developmental phenotype (pregnant rats; rat, in vivo): Maternal pregnancy loss
23 | N#Cc1c[nH]cc1-c1cccc2c1OC(F)(F)O2 [Fludioxonil] |  | 1.82 | Urogenital: renal, ureteric | Developmental phenotype (pregnant rats; rat-specific effects in ToxRefDB prenatal studies, ref U.S. EPA 2010b, listed as fludioxonil): urogenital end points
24 | CCOC(=O)COc1cc(-n2ncc(C(F)(F)F)c(C)c2=O)c(F)cc1Cl [Flufenpyr-ethyl] | 1.73 |  |  | Developmental phenotype (pregnant rabbits; [3]): Maternal pregnancy loss
25 | CCCCCOC(=O)COc1cc(N2C(=O)C3=C(CCCC3)C2=O)c(F)cc1Cl [Flumiclorac-pentyl] | 2.11 |  |  | Developmental phenotype (pregnant rabbits; [3]): Maternal pregnancy loss
26 | CO/N=C(/C1=NOCCO1)c1ccccc1Oc1ncnc(Oc2ccccc2Cl)c1F [Fluoxastrobin] |  | 2.79 | Skeletal: appendicular | 

Row | Molecule | VBS [1, 2] | VBS [1, 4] | Developmental phenotype (pregnant rats; [5]) | other results
27 | C[C@@H]1[C@@H](c2ccc(Cl)cc2)SC(=O)N1C(=O)NC1CCCCC1 [Hexythiazox] |  | 2.78 | Skeletal: appendicular | 
28 | CCOC(=O)C(C)OC(=O)c1cc(Oc2ccc(C(F)(F)F)cc2Cl)ccc1[N+](=O)[O-] (stereo not shown) [Lactofen] |  | 3.18 | Fetal weight reduction; maternal pregnancy loss; skeletal: appendicular; skeletal: axial | 
29 | N#CSCSC#N [Methylene bis(thiocyanate)] | 6.55 |  |  | Developmental phenotype (pregnant rabbits; [3]): Maternal pregnancy loss
30 | CCc1cccc(C)c1N(C(=O)CCl)C(C)COC (stereo not shown) [Metolachlor] |  | 1.57 | Fetal weight reduction; embryo fetal loss; maternal pregnancy loss | 
31 | COP(=O)(OC)OC(Br)C(Cl)(Cl)Br (stereo not shown) [Naled] |  | 4.22 | Embryo fetal loss; trunk: body wall | 
32 | CCOc1cc(Oc2ccc(C(F)(F)F)cc2Cl)ccc1[N+](=O)[O-] [Oxyfluorfen] | 1.82 |  |  | Developmental phenotype (pregnant rabbits; [3]): Embryo fetal loss; maternal pregnancy loss
33 | CN(C)[C@@H]1C(O)=C(C(N)=O)C(=O)[C@@]2(O)C(O)=C3C(=O)c4c(O)cccc4[C@@](C)(O)[C@H]3[C@H](O)[C@@H]12 [Oxytetracycline dihydrate, reference compound] |  |  |  | VBS ([1]; ToxCast chemicals of Table 2): 3.85; AC50 (PTEN): 1.6 µM; AC50 (PI3Ka): 6.2 µM; AC50 (VEGFR2): 19 µM; AC50 (VEGFR3): 6.5 µM; AC50 (TIE2): 15 µM
34 | C#CCC1=C(C)C(OC(=O)C2C(C=C(C)C)C2(C)C)CC1=O (stereo not shown) [Prallethrin] |  | 2.11 | Maternal pregnancy loss | 
35 | CCCN(CCC)c1c([N+](=O)[O-])cc(C(F)(F)F)c(N)c1[N+](=O)[O-] [Prodiamine] |  | 2.19 | Neurosensory: eye | 
36 | CCCSP(=O)(OCC)Oc1ccc(Br)cc1Cl (stereo not shown) [Profenofos] |  | 1.71 | Maternal pregnancy loss | 
37 | C#CCOS(=O)OC1CCCCC1Oc1ccc(C(C)(C)C)cc1 (stereo not shown) [Propargite] | 3.79 |  |  | Developmental phenotype (pregnant rabbits; [3]): Skeletal: axial
38 | CCNP(=S)(OC)O/C(C)=C/C(=O)OC(C)C (stereo not shown) [Propetamphos] | 2.08 |  |  | Developmental phenotype (pregnant rabbits; [3]): Embryo fetal loss
39 | Fc1ccc(Oc2ccnc3cc(Cl)cc(Cl)c23)cc1 [Quinoxyfen] | 3.02 |  |  | Developmental phenotype (pregnant rabbits; rabbit, in vivo): Maternal pregnancy loss
40 | CCS(=O)(=O)c1cccnc1S(=O)(=O)NC(=O)Nc1nc(OC)cc(OC)n1 [Rimsulfuron] | 2.52 |  |  | Developmental phenotype (pregnant rabbits; rabbit, in vivo): Embryo fetal loss; maternal pregnancy loss
41 | CCC/C(=N\OCC)C1=C(O)CC(CC(C)SCC)CC1=O (stereo not shown) [Sethoxydim] |  |  |  | VBS ([1]; ToxCast chemicals of Table 2): 0.00; AC50 (PTEN): 22 µM
42 | CCC(C)(C)C(=O)OC1=C(c2ccc(Cl)cc2Cl)C(=O)OC12CCCCC2 [Spirodiclofen] |  | 3.15 | Urogenital: renal | Developmental phenotype (pregnant rats; rat-specific effects in ToxRefDB prenatal studies, ref U.S. EPA 2010b, listed as spirodiclofen): urogenital end points
43 | FC(F)C(F)(F)OCC(Cn1cncn1)c1ccc(Cl)cc1Cl (stereo not shown) [Tetraconazole] |  | 2.23 | General fetal pathology; skeletal: axial; urogenital: renal, ureteric | Developmental phenotype (pregnant rats; rat, in vivo): urogenital end points
44 | COC(=O)c1c(C(F)F)nc(C(F)(F)F)c(C2=NCCS2)c1CC(C)C [Thiazopyr] |  | 2.00 |  | 
45 | CS/C(C)=N\OC(=O)N(C)SN(C)C(=O)O/N=C(\C)SC [Thiodicarb] |  | 2.97 | Fetal weight reduction, general fetal pathology; embryo fetal loss; maternal pregnancy loss; skeletal: axial | 
46 | CON=C(C(=O)OC)c1ccccc1CON=C(C)c1cccc(C(F)(F)F)c1 [Trifloxystrobin] | 4.26 |  |  | Developmental phenotype (pregnant rabbits; [3]): Skeletal: axial
47 | CC1(C)C(C=C(Cl)Cl)C1C(=O)OC(C#N)c1ccc(F)c(Oc2ccccc2)c1 (stereo not shown) [cyfluthrin] |  |  |  | VBS [1, 6]: 1.48
48 | CC(C)(C)c1ccc(CSc2cnn(C(C)(C)C)c(=O)c2Cl)cc1 [pyridaben] |  |  |  | VBS [1, 6]: 6.9
49 | Abamectin |  |  |  | VBS ([1]; ToxCast chemicals of Table 2): 5.19; AC50 (EphB2): 17 µM; PI3Ka AC50 (PI3Ka): 6.4 µM; AC50 (TIE2; read-out: TIE2 AC50, repeat of the TIE2 assay from the original data series): 38.8 µM
50 | Diniconazole |  | 4.57 |  | 
51 | Emamectin benzoate |  | 2.91 | Fetal weight reduction; skeletal: appendicular, axial, cranial | VBS ([1]; ToxCast chemicals of Table 2): 2.91; AC50 (PTEN; read-out: PTEN AC50): 2.1 µM; AC50 (EphB2): 21 µM; PI3Ka AC50 (PI3Ka): 7.9 µM
